Consider one compound from patent publication US11247994B2, “6-dithio-substituted-2′-deoxyguanosine compound, preparation method thereof and use thereof” (ZHEJIANG UNIVERSITY, priority 2018, dated 2022).

Data set [1] deals with human colon cancer cells HT29. As to the kind of experiment: MTT assay, tumor cell growth inhibition, HT29. Type of data set: cell-based. Conditions: HT-29, 48 hours. The method, boiled down: (§1)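 Read-out: MTT, 4 h, DMSO-dissolved formazan at OD 570 nm; viability = (drug − blank)/(solvent control − blank)×100%. Cells at 1.0×10^4-1×10^5 cells/mL, 24 h attachment, 48 h drug exposure, final DMSO <0.1%. IC50 from variable-slope curve fit.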

The subject of data set [2] is human gastric cancer cells BGC. As to the kind of experiment: MTT assay, tumor cell growth inhibition, BGC. The data set is classed as cell-based. Conditions: 48 hours. From the text:
MTT Assay—Inhibitory Effect of 6-dithio-substituted-2′-deoxyguanosine Derivatives on Tumor Cell Growth
We measured the tumor cell growth inhibitory activity of candidate compounds by MTT assay. Human tumor cells in logarithmic growth phase were digested with 0.25% pancreatin for a certain time, centrifuged, re-suspended and counted with a blood cell counting plate to prepare a cell suspension, and the cell suspension was adjusted to 1.0×10^4-1×10^5 cells/mL. The cell suspension was inoculated into a 96-well culture plate, 100 μL per well, and cultured in an incubator with saturated humidity, 37° C. and 5% CO2 for 24 hours until the cells completely adhered to the wall. The test compound was diluted to the required concentration with a complete medium, the complete medium of the 96-well culture plate inoculated with human tumor cells was sucked out, a medicament-containing medium was added, 100 μL per well, the final concentration of DMSO was less than 0.1%, and the culture plate was put in an incubator for 48 hours. 10 μl of MTT was added to each well of the 96-well plate, and the culture was continued for 4 h. The culture was stopped and the culture solution in the well was carefully sucked off. 150 μL DMSO was added to each well, and shaken at a low speed for 10 min on a shaking table, so that the crystal was fully dissolved. The absorbance of each well was measured at OD 570 nm of an enzyme-linked immunosorbent assay instrument. At the same time, zeroing wells (the culture medium, MTT, dimethyl sulfoxide) and control wells (cells, a drug dissolution medium with the same concentration, a culture solution, MTT, dimethyl sulfoxide) were set up, and the cell growth inhibitory activity was calculated with the corresponding solvents as the control. 3-6 multiple wells in each group were set up with repetition of several times. Cell viability of control=(Adrug group−Azeroing well)/(Acontrol well−Azeroing well)*100%. Drawing was drawn, the data were fitted into a concentration response curve with a variable slope, and IC50 value was calculated from the curve.
(In general: Formazan colour is commonly taken as a measure of viable cells.)

Data set [3] relates to human breast cancer cells MCF7. Description: MTT assay, tumor cell growth inhibition, MCF7. Conditions: 48 hours. The data set is classed as cell-based. The method in brief: as §1
The subject of data set [4] is human non-small cell lung cancer A549. As to the kind of experiment: MTT assay, tumor cell growth inhibition, A549. The data set is classed as cell-based. Conditions: 48 hours. The method, boiled down: as §1
A further data set addresses T1, TrxR/Trx-1 (Homo sapiens, UniProt P10599).
T1 sequence (P10599 2-105 limits assumed): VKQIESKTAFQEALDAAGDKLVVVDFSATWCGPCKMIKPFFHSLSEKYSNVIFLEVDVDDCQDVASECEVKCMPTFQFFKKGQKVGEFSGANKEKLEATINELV
Description: Ellman test, inhibition of TrxR/Trx-1 activity. Conditions: read-out: TrxR/Trx-1 IC50. Type of data set: biochemical.

Data set [5] has as its system human leukemia cells K562. Description: MTT assay, tumor cell growth inhibition, K562. The data set is classed as cell-based. As to conditions: 48 hours. The method, boiled down: as §1
The nature of data set [6]: A375 tumor-bearing mouse model, body weight, toxicity and blood biochemical indexes. Type of data set: in vivo. Conditions: compound D 10 mg/kg. On the procedure: 2) Human Melanoma Cell A375 Tumor-Bearing Mouse Model
We further studied the inhibitory effect of the compound D on human malignant melanoma by using A375 tumor-bearing mouse model. The method was basically the same as above. Dacarbazine (DTIC) is the first-line drug for melanoma. The designed administration groups were: compound D 10 mg/kg group; 6-thio-dG+PX12 combined drug group (the dose is equivalent to twice the molar amount of the compound D); DTIC 20.4 mg/kg group (the dose is equivalent to 4 times the molar amount of the compound D) and blank solvent group.

Take `CC(C)SSc1nc(N)nc2c1ncn2[C@H]1C[C@H](O)[C@@H](CO)O1` [D, 6-(isopropyldithio)-2′-deoxyguanosine]: the IC50 in data set [1] was found to be 4.24 µM; in data set [2] it was 11.7 µM; in data set [3], 41.3 µM; in data set [4], 31.1 µM; on TrxR/Trx-1 it was 4.26 µM; in data set [5] it was 15.7 µM. Moreover, the Body weight entry in data set [6] is “after 13 days of administration, the body weight was significantly higher than that of DITC group, 6-thio-dG and PX-12 combination group”. Besides, the “Toxicity compared with 6-thio-dG and PX-12 combination” value in data set [6] (combination at twice the molar amount) is “lower toxicity than the combined drug group”.
